pIC50: −log10 of the molar value.
Key:
[1] = system: histone deacetylase (HDAC), nuclear extract of Hela cells; test: Deacetylase activity on nuclear extract of HeLa cells (Fluor de Lys kit); assay type: biochemical, human; details: percent inhibition relative to control without inhibitor, compound at 0.1 μM
Method: (§1) The activity of the compounds as histone deacetylase (HDAC) inhibitors was measured using an in vitro acetylation assay. The compounds were then evaluated as inhibitors of proliferation of human tumor cell cultures.
Deacetylase Activity on Nuclear Extract of Hela Cells (Human Cervical Cancer Cell)
The assay (Fluor de Lys™ kit, BioMol) is divided into two steps: in the first step the substrate which comprises an acetylated lysine residue is reacted with the nuclear extract (HeLa) containing the enzymatic activity in the presence and absence of inhibitors. In the second step a fluorogenic reagent is added which highlights the deacetylated residues. A reduction in fluorescence is obtained where there has been inhibition of the deacetylase activity. The result is finally expressed as percent inhibition relative to the control without inhibitor at a concentration of 0.1 μM.

[2] = system: Human colon carcinoma cells HCT-116; test: Cytotoxic activity on culture of human colon carcinoma cells HCT-116 (Alamar Blue); assay type: cell-based; details: HCT-116 cells, 72 hours after addition of compounds, Alamar Blue viability
Method: as §1
24 hours after seeding, the compounds at different concentrations are added. […] 72 hours after addition of the compounds, cell viability is measured by means of the dye Alamar Blue.

Structure (SMILES)	% inhib. 0.1 μM [1] [%]	pIC50 ([2]; Homo sapiens, HCT-116, 72 h)	pIC50 [2]
Cc1cc(C)n(-c2ccc(NC(=O)N3CCC(CCCC(=O)NO)CC3)cc2)n1 [Ex 179, 4-(3-Hydroxycarbamoyl-propyl)-piperidine-1-carboxylic acid [4-(3,5-dimethyl-pyrazol-1-yl)-phenyl]-amide]	70	6.30	–
Nc1ccc2cc(NC(=O)N3CCC(CCCC(=O)NO)CC3)ccc2c1 [Ex 181, N-(6-aminonaphthalen-2-yl)-4-(4-(hydroxyamino)-4-oxobutyl)piperidine-1-carboxamide]	64	6.33	–
O=C(CCCC1CCN(C(=O)CCNc2cccc3ccccc23)CC1)NO [Ex 186, 4-[1-(3-(1)Naphtylamino-propionyl)-piperidin-4-yl]-N-hydroxy-butyramide]	81	–	6.44
O=C(CCCC1CCN(C(=O)NCc2csc3ccc(Cl)cc23)CC1)NO [Ex 188, N-(5-Chloro-benzo[b]thiophen-3-ylmethyl)-4-(4-(hydroxyamino)-4-oxobutyl)piperidine-1-carboxamide]	50	6.68	–
O=C(CCCC1CCN(C(=O)NCc2ccc(-c3ccsc3)cc2)CC1)NO [Ex 190, N-(4-(thiophen-3-yl)benzyl)-4-(4-(hydroxyamino)-4-oxobutyl)piperidine-1-carboxamide]	69	6.32	–
O=C(CCCC1CCCN(C(=O)Nc2ccccc2)C1)NO (stereo not drawn) [Ex 192, 3-(4-(hydroxyamino)-4-oxobutyl)-N-phenylpiperidine-1-carboxamide]	68	6.22	–
N[C@@H](CC(=O)N1CCC(CCCC(=O)NO)CC1)C(=O)NCc1ccccc1 [Ex 193, 2-(s)-Amino-N-benzyl-4-[4-(3-hydroxycarbamoyl-propyl)-piperidin-1-yl]-4-oxo-butyramide]	50	6.05	–
O=C(CCCC1CCN(C(=O)Nc2cc3ccccc3s2)CC1)NO [Ex 195, N-(benzo[b]thiophene)-4-(4-(hydroxyamino)-4-oxobutyl)piperidine-1-carboxamide]	42	–	6.40
O=C(CCCC1CCN(C(=O)Nc2cccc3c2CCCC3)CC1)NO [Ex 198, 4-(3-Hydroxycarbamoyl-propyl)-piperidine-1-carboxylic acid (5,6,7,8-tetrahydro-naphthalen-1-yl)-amide]	77	6.40	–
